Test results from patent publication US20050085524A1, “Pyrazolecarboxamides, intermediates therefor and pest control agent comprising the same as active ingredients” (NIHON NOHYAKU CO,. LTD., priority 2001, published 2005).

How the values were obtained:
Format in all cases: in vivo
Erypsiphe graminis = test: Fungicidal and bactericidal effect on wheat powdery mildew (spray on potted wheat, then inoculation); conditions: 500 ppm, spray on wheat (Norin No.61), diseased leaf area after 7 to 10 days
Procedure: Compound (III) disclosed in JP-A-64-25763, tebufenpyrade and various compounds in accordance with the present invention were individually prepared into preparations in the same manner as in Formulation 3 The resulting preparations were diluted to given concentrations and sprayed on the stems and leave of a wheat plant (species: Norin No.61) at the one-leaf to 2-leaf stage as grown in a pot of a 6-cm diameter, at a ratio of 10-ml volume per one pot. After drying the chemical preparations in air, the wheat plant was exposed to the spore collected from wheat leave afflicted with Erypsiphe graminis as the microorganism causing wheat powdery mildew, for inoculation. Then, the plant was left to stand alone in a green house for 7 to 10 days.
Evaluation was carried out follows. The ratio of the diseased area of each leaf was examined to calculate the control ratio according to the following formula. The results are shown in Table 3 (in the table, Compound Nos. correspond to Compound Nos. in Table-1.) • Control ratio (%) • =[(mean ratio of diseased areas in non-treated lot) • −(mean ratio of diseased areas in treated lot)]× • ×100
/ (mean ratio of diseased areas in non-treated lot)

[1] = test system: female adult Tetranychus urticae Koch; test: Miticidal effect on adult Tetranychus urticae Koch (Phaseolus leaf dip); conditions: leaf immersion, 25° C., five days after treatment
Procedure: The stem part of a Phaseolus seedling with one fresh first leaf remaining thereon was inserted in a test tube (a volume of 50 ml) containing water, where 15 female adult Tetranychus urticae Koch per one leaf was then inoculated. […] Five days after the treatment, the number of the female adult Tetranychus urticae Koch was counted on the Phaseolus leave, to calculate the adult death ratio (%) based on the above results. The results are shown in Table-6 (Compound Nos. in the table below correspond to Compound Nos. in Table-1).

Puccinia recondita = test: Fungicidal and bactericidal effect on wheat rust (spray on potted wheat seedling, then inoculation); conditions: 500 ppm, spray on wheat seedling (Norin No.61), diseased leaf area after 7 days
Procedure: Compound (III) disclosed in JP-A-64-25763 and various compounds in accordance with the present invention were individually prepared into preparations in the same manner as in Preparation 3. The resulting preparations were diluted to given concentrations and sprayed on the stems and leave of a wheat seedling (species: Norin No.61) at the one-leaf to 2-leaf stage as grown in a pot of a 6-cm diameter, at a ratio of 10-ml volume per one pot. After drying the chemical preparations in air, a spore suspension prepared by grinding the spore collected from wheat leave afflicted with Puccinia recondita as the microorganism causing wheat rust was sprayed on the wheat plant, for inoculation. Then, the plant was left to stand alone in a moist chamber at 22° C. for 15 hours. Subsequently, the plant was left to stand in a water pool in a green house for 7 days.
Evaluation was carried out by examining the ratio of the diseased area of each leaf to calculate the control ratio by the same method as in Test Example 1.
The results are shown in Table 4 (in the table, Compound Nos. correspond to Compound Nos, in Table-1.)

[2] = test system: 3rd instar Spodoptera litura larvae; test: Effect on larvae of Spodoptera litura (cabbage leaf dip); conditions: foliar, 120 h, cabbage leaf immersed, 25° C., five days, agonizing insect counted as 0.5 death, read-out: Insecticide Activity (%)
Procedure: Compound (III) disclosed in JP-A-64-25763 and various compounds in accordance with the present invention were individually prepared into insecticide preparations according to the formulation of Formulation Example 1. The resulting insecticides of the present invention (hydrates) were diluted with water, where chopped cabbage leave (a diameter of 6 cm) were then immersed for one minute. After immersion and subsequent drying in air, the cabbage leave were placed in a plastic cup (inner diameter of 7 cm), where five larvae each of 3rd instar Spodoptera litura were left (twice in duplicate per one concentration). The plastic cup was kept in a thermostat at 25° C. Five days after the larvae were left in the plastic cup, the death and agony of these larvae were examined, to calculate the insecticide activity (%) while an agonizing insect was counted as 0.5 insect death. The results are shown in Table 5 (in the table, Compound Nos. correspond to Compound Nos. in Table-1.)

CCc1nn(C)c(C(=O)NCc2ccc(C(C)(C)C)cc2)c1Cl [tebufenpyrade]
Control Ratio (%) (Erypsiphe graminis): 77% | Adult death ratio (%) ([1]; 0.8 ppm): 0% | Adult death ratio (%) ([1]; 3.1 ppm): 80% | Adult death ratio (%) ([1]; 12.5 ppm): 100%

CCCCCCCc1ccc(-c2ccc(CNC(=O)c3cc(CC)nn3C)cc2)cc1 [compound 13]
Control Ratio (%) (Erypsiphe graminis): 100%

CCCCCc1ccc(-c2ccc(CNC(=O)c3cc(CC)nn3C)cc2)cc1 [Compound No. 11]
Adult death ratio (%) ([1]; 500 ppm): 100%

Cc1nn(C)c(C(=O)NC(C)c2ccc(-c3ccccc3)cc2)c1Br (stereo not shown) [Compound (III)]
Control Ratio (%) (Erypsiphe graminis): 0% | Control Ratio (%) (Puccinia recondita): 0% | inhibition at 500 ppm [2]: 20% | Adult death ratio (%) ([1]; 500 ppm): 15%

CCc1cc(C(=O)NCc2ccc(-c3ccc(OC(F)F)cc3)cc2)n(C)n1 [Compound No. 30, N-[4-(4-Difluoromethoxyphenyl)benzyl]-1-methyl-3-ethylpyrazole-5-carboxamide]
Control Ratio (%) (Erypsiphe graminis): 100% | Control Ratio (%) (Puccinia recondita): 100% | Adult death ratio (%) ([1]; 500 ppm): 100%

CCc1cc(C(=O)NCc2ccc(-c3ccc(OC(C)C)cc3)cc2)n(C)n1 [compound 25]
Control Ratio (%) (Erypsiphe graminis): 100% | Control Ratio (%) (Puccinia recondita): 100%

Cn1nc2c(c1C(=O)NCc1ccc(-c3ccc(OC(F)(F)F)cc3)cc1)CCCC2 [compound 106]
Adult death ratio (%) ([1]; 500 ppm): 100%
